Source: PubChem BioAssay (NCI)
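Compound exposure: 48 hours, 5 concentrations, 96-well plates. GI50 = concentration required for 50% inhibition of growth. At the TGI there is no net growth.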

Legend:
Test in all cases: growth of human tumour cells (NCI), 48 h
786-0 renal = test system: 786-0 renal
A498 renal = test system: A498 renal
A549 NSCLC = test system: A549 NSCLC
ACHN renal = test system: ACHN renal
BT-549 breast = test system: BT-549 breast
CAKI-1 renal = test system: CAKI-1 renal
CCRF-CEM leukemia = test system: CCRF-CEM leukemia
COLO 205 colon = test system: COLO 205 colon
DU-145 prostate = test system: DU-145 prostate
HCC-2998 colon = test system: HCC-2998 colon
HCT-116 colon = test system: HCT-116 colon
HCT-15 colon = test system: HCT-15 colon
HL-60(TB) leukemia = test system: HL-60(TB) leukemia
HOP-62 NSCLC = test system: HOP-62 NSCLC
HOP-92 NSCLC = test system: HOP-92 NSCLC
HS 578T breast = test system: HS 578T breast
HT29 colon = test system: HT29 colon
IGROV1 ovarian = test system: IGROV1 ovarian
K-562 leukemia = test system: K-562 leukemia
KM12 colon = test system: KM12 colon
LOX IMVI melanoma = test system: LOX IMVI melanoma
M14 melanoma = test system: M14 melanoma
MCF7 breast = test system: MCF7 breast
MDA-MB-231 breast = test system: MDA-MB-231 breast
MDA-MB-435 = test system: MDA-MB-435
MOLT-4 leukemia = test system: MOLT-4 leukemia
NCI-H226 lung = test system: NCI-H226 lung
NCI-H23 lung = test system: NCI-H23 lung
NCI-H460 lung = test system: NCI-H460 lung
NCI-H522 lung = test system: NCI-H522 lung
NCI/ADR-RES ovarian = test system: NCI/ADR-RES ovarian
OVCAR-3 ovarian = test system: OVCAR-3 ovarian
OVCAR-4 ovarian = test system: OVCAR-4 ovarian
OVCAR-5 ovarian = test system: OVCAR-5 ovarian
OVCAR-8 ovarian = test system: OVCAR-8 ovarian
PC-3 prostate = test system: PC-3 prostate
RPMI-8226 leukemia = test system: RPMI-8226 leukemia
RXF 393 renal = test system: RXF 393 renal
SF-268 CNS = test system: SF-268 CNS
SF-295 CNS = test system: SF-295 CNS
SF-539 CNS = test system: SF-539 CNS
SK-MEL-2 melanoma = test system: SK-MEL-2 melanoma
SK-MEL-28 melanoma = test system: SK-MEL-28 melanoma
SK-MEL-5 melanoma = test system: SK-MEL-5 melanoma
SK-OV-3 ovarian = test system: SK-OV-3 ovarian
SN12C renal = test system: SN12C renal
SNB-19 CNS = test system: SNB-19 CNS
SNB-75 CNS = test system: SNB-75 CNS
SR leukemia = test system: SR leukemia
SW-620 colon = test system: SW-620 colon
TK-10 renal = test system: TK-10 renal
U251 CNS = test system: U251 CNS
UACC-62 melanoma = test system: UACC-62 melanoma
UO-31 renal = test system: UO-31 renal

## COc1ccc(-c2cn[nH]c2-c2cc(OC)c3c(c2)OCO3)cc1
786-0 renal
  GI50: 0.585 µM
  TGI: 14.2 µM
A498 renal
  GI50: 0.0632 µM
  TGI: 1.13 µM
A549 NSCLC
  GI50: 0.3 µM
  TGI: 20.1 µM
ACHN renal
  GI50: 0.78 µM
  TGI: 48.8 µM
BT-549 breast
  GI50: 2.26 µM
  TGI: 25.8 µM
CAKI-1 renal
  GI50: 0.262 µM
  TGI: 24.9 µM
CCRF-CEM leukemia
  GI50: 0.266 µM
  TGI: 21.3 µM
COLO 205 colon
  GI50: 0.164 µM
  TGI: 0.768 µM
DU-145 prostate
  GI50: 0.402 µM
  TGI: 14.9 µM
HCC-2998 colon
  GI50: 0.649 µM
  TGI: 11.8 µM
HCT-116 colon
  GI50: 0.277 µM
  TGI: 11.7 µM
HCT-15 colon
  GI50: 0.0794 µM
  TGI: 14.4 µM
HL-60(TB) leukemia
  GI50: 0.22 µM
  TGI: 0.771 µM
HOP-62 NSCLC
  GI50: 0.309 µM
  TGI: 24.1 µM
HOP-92 NSCLC
  GI50: 0.417 µM
  TGI: 20.8 µM
HS 578T breast
  GI50: 0.311 µM
  TGI: 26.2 µM
HT29 colon
  GI50: 0.102 µM
  TGI: 12.1 µM
IGROV1 ovarian
  GI50: 0.984 µM
  TGI: 26.7 µM
K-562 leukemia
  GI50: 0.0467 µM
  TGI: > 66.2 µM
KM12 colon
  GI50: 0.0929 µM
  TGI: 11.1 µM
LOX IMVI melanoma
  GI50: 0.599 µM
  TGI: 19.2 µM
M14 melanoma
  GI50: 0.207 µM
  TGI: 12.9 µM
MCF7 breast
  GI50: 0.116 µM
  TGI: 15.8 µM
MDA-MB-231 breast
  GI50: 0.643 µM
  TGI: 8.35 µM
MDA-MB-435
  GI50: 0.0267 µM
  TGI: 0.0838 µM
MOLT-4 leukemia
  GI50: 0.541 µM
  TGI: 15.1 µM
NCI-H226 lung
  GI50: 1.34 µM
  TGI: 22.3 µM
NCI-H23 lung
  GI50: 0.43 µM
  TGI: 14.7 µM
NCI-H460 lung
  GI50: 0.335 µM
  TGI: 11.3 µM
NCI-H522 lung
  GI50: 0.0555 µM
  TGI: 1.68 µM
NCI/ADR-RES ovarian
  GI50: 0.12 µM
  TGI: 27.4 µM
OVCAR-3 ovarian
  GI50: 0.196 µM
  TGI: 0.596 µM
OVCAR-4 ovarian
  GI50: 2.15 µM
  TGI: 62.9 µM
OVCAR-5 ovarian
  GI50: 1.34 µM
  TGI: 36.6 µM
OVCAR-8 ovarian
  GI50: 0.423 µM
  TGI: 15.1 µM
PC-3 prostate
  GI50: 0.262 µM
  TGI: 21.8 µM
RPMI-8226 leukemia
  GI50: 0.314 µM
  TGI: 14.5 µM
RXF 393 renal
  GI50: 0.176 µM
  TGI: 0.684 µM
SF-268 CNS
  GI50: 0.854 µM
  TGI: 31 µM
SF-295 CNS
  GI50: 0.181 µM
  TGI: 4.15 µM
SF-539 CNS
  GI50: 0.193 µM
  TGI: 0.539 µM
SK-MEL-2 melanoma
  GI50: 0.265 µM
  TGI: 17.8 µM
SK-MEL-28 melanoma
  GI50: 1.22 µM
  TGI: 28.5 µM
SK-MEL-5 melanoma
  GI50: 0.277 µM
  TGI: 8.7 µM
SK-OV-3 ovarian
  GI50: 0.386 µM
  TGI: 5.45 µM
SN12C renal
  GI50: 1.1 µM
  TGI: 27.7 µM
SNB-19 CNS
  GI50: 2.97 µM
  TGI: 54.6 µM
SNB-75 CNS
  GI50: 0.134 µM
  TGI: 0.707 µM
SR leukemia
  GI50: 0.0631 µM
  TGI: 16.8 µM
SW-620 colon
  GI50: 0.141 µM
  TGI: 23.2 µM
TK-10 renal
  GI50: 1.51 µM
  TGI: 63.3 µM
U251 CNS
  GI50: 0.321 µM
  TGI: 10.7 µM
UACC-62 melanoma
  GI50: 0.397 µM
  TGI: 14.9 µM
UO-31 renal
  GI50: 0.669 µM
  TGI: 23.1 µM
